# Results from patent US20060035317A1, “Effect of treatment with 4,5-dihydroxy-2-cyclopenten-1-one (dhcp) on gene expression and quorum-sensing in bacteria” (priority 2002, published 2006).
# “And” between values parts separate entries of the source, which are not always exact repeats. Equal values may be shown once.
# Legend:
# [1] = test system: AI-2 activity, V. harveyi reporter strain BB170; details: Schauder et al., 2001; cited from earlier work
# [2] = test system: E. coli wild-type strain JM83 (gene expression); test: DNA microarray analysis of mRNA levels in DHCP-treated vs control cells; format: cell-based; details: DHCP 250 μM, 8 h
# Protocol: E. coli wild-type strain JM83 [F^− araΔ(lac-proAB) rpsL(str^r)] (Yanisch-Perron et al., 1985) was grown in Luria broth (LB). V. harveyi strains BB152 and BB170 were a gift from Dr. Bonnie Bassler (Princeton University). These strains were grown in AB medium as described previously (Surette et al., 1999).
# E. coli cells grown overnight in LB medium were diluted into fresh LB medium. After the growth reached a Klett unit of 50, DHCP was added (250 μM) and growth was further monitored. After growth reached a Klett unit of 90-100, it was diluted 10-fold into a medium containing the same concentration of DHCP as described previously (Phadtare et al., 2001). The cells were harvested after a total of 8 h of incubation with DHCP. […] The total RNA was extracted by the hot phenol method described previously (Sarmientos et al., 1983). It was further purified by RNeasy Minikit (Qiagen) and was then treated with DNase I followed by phenol-chloroform treatment and ethanol precipitation. It was quantified by measuring absorbance at 260 nm. The purity of RNA was confirmed by agarose gel electrophoresis.
# The mRNAs were labeled with Cy3-dUTP and Cy5-dUTP (Amersham Pharmacia). Random Hexamer pd(N)6 (Amersham Pharmacia) was used as a primer and the IntelliGene E. coli CHIP Version 1 (Takara Shuzo, Co. Ltd., Japan) the DNA microarray was used. This represents the entire ORF of E. coli K-12 W3110.
# The cell densities of the control (untreated) and the DHCP-treated cells used were the same; thus, the changes seen in the microarray were not substantially influenced by the difference in cell densities. RNAs isolated from the respective cells were used to generate probes for hybridization of DNA arrays and the data were quantified as described in the Materials and Methods section of this Example. Calculation of the log expression ratios of the corresponding spots allowed pair-wise comparisons of the relative transcript levels for each of the E. coli genes under the two growth conditions. Only those genes whose expression levels differed by log ratio of at least four were considered. In some cases, genes belonging to same operon or category were considered even if the log ratios differed by the factor of only three or little less than three. Log ratios above zero value indicate induction and below zero value indicate repression by DHCP treatment. […] The results of both methods are in agreement with each other.
smiles,measurement,setting,value
"O=C1C=CC(O)C1O (stereo not drawn) [DHCP, 4,5-dihydroxy-2-cyclopenten-1-one]",Activity as AI-2 candidate in the screening assay,[1],did not show any activity
same,Increase of mRNA levels,"[2]; Cys regulon genes cysA, cysD, cysH, cysI, cysJ, cysk, cysM, cysN, cysP, cysQ, cysU, cysW",3-20 times
same,Ratio (DHCP-treated/control),[2]; gene CysH (Adenylsulphate reductase),6.50
same,Ratio (DHCP-treated/control),[2]; gene CysI (Sulfite reductase(NADPH) alpha subunit),7.30
same,Ratio (DHCP-treated/control),[2]; gene CysJ (Sulfite reductase(NADPH) beta subunit),4.70
same,Ratio (DHCP-treated/control),[2]; gene CysK (Cysteine synthase),20
same,Ratio (DHCP-treated/control),[2]; gene CysM (O-acetylserine (thiol)-lyase B),3.00
same,Ratio (DHCP-treated/control),[2]; gene CysN (Sulfate adenylyltransferase),5.00
same,Ratio (DHCP-treated/control),[2]; gene CysP (Thiosulfate-binding protein CysP precursor),3.55
same,Ratio (DHCP-treated/control),[2]; gene CysQ (Ammonium transport protein CysQ),3.28
same,Ratio (DHCP-treated/control),[2]; gene CysW (Sulfate/thiosulfate transport protein CysW),15.00
same,Ratio (DHCP-treated/control),"[2]; gene EntA (2,3-dihydro-2,3-dihydroxybenzoate)",0.44
same,Ratio (DHCP-treated/control),[2]; gene EntB (Isochorismatase),0.23
same,Ratio (DHCP-treated/control),[2]; gene EntC (Isochorismate synthase),0.45
same,Ratio (DHCP-treated/control),[2]; gene EntE (Enterochelin synthetase),0.32
same,Ratio (DHCP-treated/control),"[2]; gene Fbp (Fructose-1,6-biphosphatase)",4.00
same,Ratio (DHCP-treated/control),[2]; gene FruB (PTS system),0.12
same,Ratio (DHCP-treated/control),[2]; gene FruK (I-phosphofructokinase),0.03
same,Ratio (DHCP-treated/control),[2]; gene GalM (Aldose 1-epimerase),4.00
same,Ratio (DHCP-treated/control),[2]; gene Gale (UDP-glucose 4-epimerase),4.60
same,Ratio (DHCP-treated/control),[2]; gene MarA (Multiple antibiotic resistance protein MarA),5
same,Ratio (DHCP-treated/control),[2]; gene MdaB (Modulator of drug activity),10
same,Ratio (DHCP-treated/control),[2]; gene TalA (Patatire transaldolase),7.6
same,Ratio (DHCP-treated/control),[2]; gene TehB (Tellurite resistance protein TehB),5
same,Ratio (DHCP-treated/control),[2]; gene YidS (unknown function or class),4
same,Ratio (DHCP-treated/control),[2]; gene ZipA (Cell division protein),4.50
same,Decrease of mRNA level,[2]; gene ackA,3.6 times
same,Ratio (DHCP-treated/control),[2]; gene ansP (L-asparagine permease),0.29
same,Ratio (DHCP-treated/control),[2]; gene atoE (Short-chain fatty acids),0.17
same,Ratio (DHCP-treated/control),[2]; gene atzN (Zinc-transporting ATPase),11 and 11.30
same,Ratio (DHCP-treated/control),[2]; gene cheA (Chemotaxis protein CheA),0.25
same,Ratio (DHCP-treated/control),[2]; gene cpxP (Periplasmic protein precursor),4.95
same,Ratio (DHCP-treated/control),[2]; gene creD (Inner-membrane protein CreD),47
same,Ratio (DHCP-treated/control),[2]; gene cysU (Sulfate transport system permease),4.99
same,Ratio (DHCP-treated/control),[2]; gene czcD (Cation efflux protein CzcD),3.60
same,Ratio (DHCP-treated/control),[2]; gene dps (DNA-binding protein Dps),13
same,Ratio (DHCP-treated/control),[2]; gene fadL (Long-chain fatty acid transport protein),0.10
same,Ratio (DHCP-treated/control),[2]; gene fecA (Iron(III) dicitrate transport protein FecA),0.16
same,Ratio (DHCP-treated/control),[2]; gene fecB (Iron(III) dicitrate-binding protein),0.15
same,Ratio (DHCP-treated/control),[2]; gene fecC (FecC protein),0.21
same,Ratio (DHCP-treated/control),[2]; gene fecD (Iron(III) dicitrate transport system protein),0.15
same,Ratio (DHCP-treated/control),[2]; gene fecE (Iron(III) dicitrate transport protein),0.11
same,Ratio (DHCP-treated/control),[2]; gene fepA (Ferrienterochelin receptor precursor),0.25
same,Ratio (DHCP-treated/control),[2]; gene fepC (Ferric enterobactin transport protein FepC),0.40
same,Inhibition of mRNA level,[2]; gene fruB,8 times
same,Inhibition of mRNA level,[2]; gene fruK,33 times
same,Ratio (DHCP-treated/control),[2]; gene glf (UDP-galactopyranose mutase),0.20
same,Ratio (DHCP-treated/control),[2]; gene hdeB (10k-1 protein precursor),6.00
same,Ratio (DHCP-treated/control),[2]; gene katG (Catalase HPI),9.00
same,Ratio (DHCP-treated/control),[2]; gene lysP (Lysin-specific permease),0.16
same,Ratio (DHCP-treated/control),[2]; gene motA (Chemotaxis protein MotA),0.18
same,Ratio (DHCP-treated/control),[2]; gene motB (Chemotaxis protein MotB),0.40
same,Ratio (DHCP-treated/control),[2]; gene msyB (Membrane protein),4.25
same,Ratio (DHCP-treated/control),[2]; gene nmpC (Outer membrane porin protein precursor),0.01
same,Ratio (DHCP-treated/control),[2]; gene ompA (Outer membrane protein a precursor),0.23
same,Ratio (DHCP-treated/control),[2]; gene ompC (Outer membrane protein c precursor),0.20
same,Ratio (DHCP-treated/control),[2]; gene ompF (Outer membrane protein f precursor),0.06
same,Ratio (DHCP-treated/control),[2]; gene ompT (ProteinaseVII),0.11
same,Ratio (DHCP-treated/control),[2]; gene osmY (Hyperosmotically induced protein),12.00
same,Ratio (DHCP-treated/control),[2]; gene otsA (Tehalose-6-phosphate synthase),11.00
same,Ratio (DHCP-treated/control),[2]; gene pheP (phenylalanine transport protein pheP),0.13
same,Ratio (DHCP-treated/control),[2]; gene plsX (PlsX protein),0.28
same,Ratio (DHCP-treated/control),[2]; gene potA (Spermidine/putrescine transport protein A),0.13
same,Ratio (DHCP-treated/control),[2]; gene potB (Spermidine/putrescine transport system),0.13
same,Ratio (DHCP-treated/control),[2]; gene potC (Spermidine/putrescine transport system),0.20
same,Ratio (DHCP-treated/control),[2]; gene potD (Spermidine/putrescine transport protein D),0.19
same,Ratio (DHCP-treated/control),[2]; gene poxB (Pyruvate dehydrogenase),15.00
same,Ratio (DHCP-treated/control),[2]; gene rfc (Probably O-antigen polymerase),0.23
same,Ratio (DHCP-treated/control),[2]; gene rplA (Ribosomal protein L1),0.23
same,Ratio (DHCP-treated/control),[2]; gene rplB (Ribosomal protein L2),0.25
same,Ratio (DHCP-treated/control),[2]; gene rplC (Ribosomal protein L3),0.28
same,Ratio (DHCP-treated/control),[2]; gene rplD (Ribosomal protein L4),0.27
same,Ratio (DHCP-treated/control),[2]; gene rplE (Ribosomal protein L5),0.34
same,Ratio (DHCP-treated/control),[2]; gene rplF (Ribosomal protein L6),0.30
same,Ratio (DHCP-treated/control),[2]; gene rplI (Ribosomal protein L9),0.25
same,Ratio (DHCP-treated/control),[2]; gene rplJ (Ribosomal protein L10),0.28
same,Ratio (DHCP-treated/control),[2]; gene rplK (Ribosomal protein L11),0.39
same,Ratio (DHCP-treated/control),[2]; gene rplM (Ribosomal protein L13),0.49
same,Ratio (DHCP-treated/control),[2]; gene rplN (Ribosomal protein L14),0.44
same,Ratio (DHCP-treated/control),[2]; gene rplO (Ribosomal protein L15),0.36
same,Ratio (DHCP-treated/control),[2]; gene rplP (Ribosomal protein L16),0.36
same,Ratio (DHCP-treated/control),[2]; gene rplQ (Ribosomal protein L17),0.47
same,Ratio (DHCP-treated/control),[2]; gene rplR (Ribosomal protein L18),0.38
same,Ratio (DHCP-treated/control),[2]; gene rplS (Ribosomal protein L19),0.35
same,Ratio (DHCP-treated/control),[2]; gene rplV (Ribosomal protein L22),0.28
same,Ratio (DHCP-treated/control),[2]; gene rplW (Ribosomal protein L23),0.27
same,Ratio (DHCP-treated/control),[2]; gene rplX (Ribosomal protein L24),0.31
same,Ratio (DHCP-treated/control),[2]; gene rplY (Ribosomal protein L25),0.28
same,Ratio (DHCP-treated/control),[2]; gene rpmB (Ribosomal protein L28),0.45
same,Ratio (DHCP-treated/control),[2]; gene rpmE (Ribosomal protein L31),0.39
same,Ratio (DHCP-treated/control),[2]; gene rpoS (RNP polymerase sigma factor RpoS),4
same,Ratio (DHCP-treated/control),[2]; gene sdaC (Probable serine transport protein),0.25
same,Ratio (DHCP-treated/control),[2]; gene secF (Secretion protein SecF),0.26
same,Ratio (DHCP-treated/control),[2]; gene secG (P12 cytoplasmic membrane protein),0.30
same,Ratio (DHCP-treated/control),[2]; gene secY (SecY protein),0.40
same,Ratio (DHCP-treated/control),[2]; gene tsr (Methyl-accepting chemotaxis protein1(mcp-1)),0.22
same,Ratio (DHCP-treated/control),[2]; gene tsx (Nucleoside-specific channel-forming protein),0.22
same,Ratio (DHCP-treated/control),[2]; gene wrbA (Trp repressor binding protein),14.00
same,Ratio (DHCP-treated/control),[2]; gene yieI (unknown function or class),4
same,Ratio (DHCP-treated/control),[2]; gene znu (High-affinity zinc uptake system protein),0.13
same,Induction of CreBC-regulated genes,"[2]; genes ackA, pta, radc, malE and trgB",not induced
same,Induction of genes,"[2]; genes astD, tnaB and gabT",not induced
same,Effect on mRNA levels,[2]; genes cysG and cysS (not in Cys regulon),not affected
same,Decrease of mRNA levels,[2]; genes encoding outer membrane proteins (Omp),5-15 times
same,Decrease of mRNA levels,"[2]; genes motA, motB and cheA (motor action)",4-6 times
same,Change of mRNA levels,[2]; genes parc and parE (topoisomerase IV subunits),did not change
same,Change of mRNA levels,"[2]; genes rfa, wzb or hha",did not change significantly
same,Reduction of mRNA levels,[2]; most of the genes encoding ribosomal L proteins,2-3 times
